Measurements published in US5773459A, “Urea- and thiourea-type compounds” (Sugen, Inc., priority 1995, dated 1998).
Like-named read-outs stand apart in the source and are kept apart here.

System: HUV-EC-C cells (human umbilical vein endothelial cells)
Assay: HUV-EC-C Flk-1 assay (3H-thymidine incorporation)
Format: cell-based
Conditions: Endothelial cell
Procedure: The HUV-EC-C Flk-1 assay can be performed as follows:
1. Wash and trypsinize HUV-EC-C cells (human umbilical vein endothelial cells, American Type Culture Collection; catalogue no. 1730-CRL). Wash with Dulbecco's phosphate-buffered saline (D-PBS; obtained from Gibco BRL; catalogue no. 14190-029) 2 times at about 1 ml/10 cm^2 of tissue culture flask. Trypsinize with 0.05% trypsin-EDTA in non-enzymatic cell dissociation solution (Sigma Chemical Company; catalogue no. C-1544). The 0.05% trypsin was made by diluting 0.25% trypsin/l mM EDTA (Gibco; catalogue no. 25200-049) in the cell dissociation solution. Trypsinize with about 1 ml/25-30 cm^2 of tissue culture flask for about 5 minutes at 37° C. After cells have detached from the flask, add an equal volume of D-PBS and transfer to a 50 ml sterile centrifuge tube (Fisher Scientific; catalogue no. 05-539-6).
2. Wash the cells with about 35 ml D-PBS in the 50 ml sterile centrifuge tube by adding the D-PBS, centrifuge for 10 minutes at approximately 200×g, aspirate the supernatant, and resuspend with 35 ml D-PBS. Repeat the wash two more times, resuspend the cells in about 1 ml assay medium/15 cm^2 of tissue culture flask. Assay medium consists of F12K medium (Gibco BRL; catalogue no. 21127-014)+0.5% heat-inactivated fetal bovine serum. […]

## CC(C)S(=O)(=O)c1csc(NC(=O)Nc2ccc(C(C)(C)C)cc2)c1Cl [Example Z1, N-[3-Chloro-4-(isopropylsulfonyl)thien-2-yl]-N'-(4-t-butylphenyl)urea]
VEGF stimulated, read-out: GROWTH DATA: HUV-EC-C/VEGF
  IC50: 2.9 µM
aFGF stimulated, read-out: GROWTH DATA: HUV-EC-C/aFGF
  IC50: 30 µM
